In assay [1] the test system is platelets (platelet rich plasma). In words: Inhibition of platelet aggregation, collagen as agonist. The class given is cell-based. The conditions noted are these: human PRP; for inhibition at 30 µM: compound 30 μM; for inhibition at 5 µM: compound 5 μM. The method, then:
(§1) Platelet rich plasma (PRP) was obtained by drawing whole blood from normal human donors (not on any medication) into sodium citrate tubes (3.2%), and centrifuging at 160×g for about 10 minutes. Platelet poor plasma (PPP) was obtained by centrifuging the remainder of the sample after the platelets were removed at 800×g for about 10 minutes. The PRP was adjusted to a count of 280×10^9/L using a mixture of PRP and PPP. The platelets (200 μL) were incubated with the test compounds (25 μL) adjusted to various concentrations (5, 10, 20, 30, 50, and 100 μM) for about 30 minutes at room temperature (approximate final platelet count in the incubation mixture of 250×10^9/L). The samples were incubated for about 3 minutes at about 37° C., and then transferred to the mixing wells of a Chrono-log 4 channel aggregometer (Chrono-log Corp., Havertown, Pa.). After baselines were established, agonist (25 μL of 40 μM ADP (Sigma, St. Louis, Mo.) or 25 μL of 50 μg/mL and 10 μg/mL collagen (Helena Laboratories, Beaumont, Tex.) or 25 μL of 120 μM thrombin receptor activating peptide (TRAP) (Sigma)) was then added. Aggregation was monitored for 5 minutes at 37° C. with stirring (1000 rpm). The amplitude and slope of each tracing were calculated to determine the amount of aggregation. Control samples were performed using only solvent. The % reduction in aggregation was calculated for each sample compared to the proper solvent control.

Assay [2] shares this test system. As to the kind of experiment: Inhibition of platelet aggregation, ADP as agonist. As to conditions: ADP 4 μM, human PRP, read-out: % Reduction in Aggregation ADP (4 μM); for inhibition at 30 µM: compound 30 μM. The class given is cell-based. The method, then:
as §1

Assay [3] shares this test system. In words: Inhibition of platelet aggregation, thrombin receptor activating peptide (TRAP) as agonist. The conditions noted are these: TRAP 12 μM, human PRP, read-out: % Reduction in Aggregation TRAP (12 μM); for inhibition at 30 µM: compound 30 μM. The class given is cell-based. The method, then: as §1
A further assay deals with T1, Human Thrombin (Homo sapiens, UniProt P00734).
T1 construct: Determination of Anti-Thrombin (Factor IIa) Activity; purchased Calbiochem
In words: Determination of Anti-Thrombin (Factor IIa) Activity. The class given is biochemical. The conditions noted are these: competitive inhibition; substrate Pefachrome Thr; pH 8.3. How it is done:
The test compounds (40 μL) adjusted to various concentrations (0.25 to 100 μM) were incubated with Human Thrombin (Calbiochem) enzyme (5 nM) in 31 mM Tris buffer (pH 8.3) containing 81 mM sodium chloride and 0.63% bovine serum albumin (fraction V)(80 μL) at room temperature for about 30 minutes. 80 μL of Pefachrome® Thr (Pentapharm) was adjusted to various concentrations, from 62.5 μM to 1.25 mM. The activity was measured at about 37° C. by monitoring absorbance at 405 nm for about 15 minutes using a FLUOstar OPTIMA™. Control sample was the solvent alone. Each test compound was analyzed twice using 4 concentrations of compound plus control (in duplicate) with 5 concentrations of substrate (50, 100, 200, 300 and 500 μM). The specific activity (ΔA405/min/nM enzyme) was determined for each data point. The Ki for competitive inhibition was then determined for each test compound using the Enzyme Kinetics module of Sigmaplot 8.0 (SPSS).

For the next assay, the target named is T2, Human FXa (Homo sapiens, UniProt P00742).
T2 construct: Determination of Anti-Factor Xa (Fxa) Activity; purchased Calbiochem
In words: Determination of Anti-Factor Xa (Fxa) Activity. The class given is biochemical. As to conditions: competitive inhibition; substrate Pefachrome Xa; pH 7.5. The method, then: The test compounds (40 μL) adjusted to various concentrations (0.25 to 100 μM) were incubated with 5 nM Human FXa (Calbiochem, San Diego, Calif.) enzyme in 125 mM Tris [Tris(hydroxymethyl)aminomethane] buffer (pH 7.5) containing 375 mM sodium chloride and 0.25% polyethylene glycol (MW 8000) (80 μL) at room temperature for about 30 minutes. 80 μL of synthetic substrate Pefachrome® Xa (Pentapharm, Basel, Switzerland), adjusted to various concentrations from 125 μM to 1.25 mM, was added. The activity was measured at 37° C. by monitoring absorbance at 405 nm for 15 minutes using a FLUOstar OPTIMA™ (BMG Labtech GmbH, Offenburg, Germany) microplate reader. Control sample was the solvent alone. Each test compound was analyzed twice using 4 concentrations of compound plus control (in duplicate) with 5 concentrations of substrate (50, 100, 200, 300 and 500 μM). The specific activity (ΔA405/min/nM enzyme) was determined for each data point. The Ki for competitive inhibition was then determined for each test compound using the Enzyme Kinetics module of Sigmaplot 8.0 (SPSS Inc., Chicago, Ill.).

[4] abbreviates: collagen 1 μg/mL, read-out: % Reduction in Aggregation Collagen (1 μg/mL).
[5] abbreviates: collagen 5 μg/mL, read-out: % Reduction in Aggregation Collagen (5 μg/mL).

Data on seven compounds can be found in patent publication US7812037B2, “Dual antiplatelet/anticoagulant pyridoxine analogs” (Medicure International, Inc., priority 2004, dated 2010).

By Ki is commonly meant a measure of affinity in units of concentration, obtained from inhibition or displacement. Low values mean a stronger hold on the target, high ones a looser hold on the target.

T2 sequence (P00742 235-488 limits assumed): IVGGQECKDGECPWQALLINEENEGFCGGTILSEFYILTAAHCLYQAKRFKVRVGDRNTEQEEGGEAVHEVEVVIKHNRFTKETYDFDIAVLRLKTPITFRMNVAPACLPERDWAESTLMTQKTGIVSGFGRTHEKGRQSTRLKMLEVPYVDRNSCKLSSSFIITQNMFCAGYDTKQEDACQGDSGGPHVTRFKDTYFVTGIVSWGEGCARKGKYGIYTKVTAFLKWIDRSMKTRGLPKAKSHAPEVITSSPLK
T2 sequence (P00742 41-179 partner limits assumed): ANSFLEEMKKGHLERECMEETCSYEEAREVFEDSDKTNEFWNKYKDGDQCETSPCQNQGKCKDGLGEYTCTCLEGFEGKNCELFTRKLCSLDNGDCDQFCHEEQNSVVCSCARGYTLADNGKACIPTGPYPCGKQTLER

`Cc1ncc(CNc2ccc(-c3ccc(C(=N)N)cc3)cc2)c(CO)c1OCc1ccc(C(=N)N)cc1` [Compound 6, 4′-{[5-(4-Carbamimidoyl-benzyloxy)-4-hydroxymethyl-6-methyl-pyridin-3-ylmethyl]-amino}-biphenyl-4-carboxamidine]: the inhibition at 30 µM in assay [1] (setting [4]) came to 100%; in assay [1] (setting [5]), 44%; in assay [2] it was 89%; in assay [3] it was 86%. Also, the results for the Ki on Human Thrombin and at Human FXa were 10.3 µM and 2.3 µM, respectively.

Regarding `Cc1ncc(CNc2ccc(-c3ccc(C(=N)N)cc3)cc2)c(C)c1OCc1ccc(C(=N)N)cc1` [Compound 25, 4′-{[5-(4-Carbamimidoyl-benzyloxy)-4,6-dimethyl-pyridin-3-ylmethyl]-amino}-biphenyl-4-carboxamidine], the inhibition at 30 µM in assay [1] (setting [4]) worked out at 96%; in assay [1] (setting [5]), 52%; in assay [2], 93%; in assay [3], 95%. In addition, the inhibitory constant (Ki) on Human Thrombin is 3.77 µM; at Human FXa, 0.32 µM.

Regarding `Cc1ncc(CNc2ccc(-c3ccc(C(=N)N)cc3)cc2)c(C)c1OCc1cccc(C(=N)N)c1` [Compound 29, 4′-{[5-(3-Carbamimidoyl-benzyloxy)-4,6-dimethyl-pyridin-3-ylmethyl]-amino}-biphenyl-4-carboxamidine], the inhibition at 30 µM in assay [1] (setting [4]) turned out to be 32%; in assay [1] (setting [5]), 15%; in assay [2] it was 52%; in assay [3], 32%. Further, the Ki on Human Thrombin came out at 4.6 µM; on Human FXa it was 0.14 µM.

In the case of `Cc1ncc(CNc2ccc(C(=N)N)cc2)c(C)c1OCc1ccc(C(=N)N)cc1` [Compound 31, 4-{[5-(4-Carbamimidoyl-benzyloxy)-4,6-dimethyl-pyridin-3-ylmethyl]-amino}-benzamidine], the inhibition at 10 µM in assay [1] (compound 10 μM, collagen 1 μg/mL, read-out: % Reduction in Aggregation Collagen (1 μg/mL)) was found to be 83%; in assay [2] (compound 10 μM), 80%; in assay [3] (compound 10 μM), 84%. For the same compound, the Ki at Human Thrombin was 0.062 µM; on Human FXa, 1.34 µM.

For the compound `Cc1ncc(CNc2ccc(C(=N)N)cc2)c(C)c1OCc1cccc(C(=N)N)c1` [Compound 33, 4-{[5-(3-Carbamimidoyl-benzyloxy)-4,6-dimethyl-pyridin-3-ylmethyl]-amino}-benzamidine], the inhibition at 50 µM in assay [1] (compound 50 μM, collagen 1 μg/mL, read-out: % Reduction in Aggregation Collagen (1 μg/mL)) was 81%; in assay [2] (compound 50 μM), 84%; in assay [3] (compound 50 μM), 79%. Moreover, the Ki at Human Thrombin came to 0.031 µM; at Human FXa it was 0.284 µM.

On to `Cc1ncc(CNc2ccc(-c3ccc(C(=N)N)cc3)cc2)c(CNCCCCCC(=O)O)c1OCc1ccc(C(=N)N)cc1` [Compound 56, 6-({3-(4-Carbamimidoyl-benzyloxy)-5-[(4′-carbamimidoyl-biphenyl-4-ylamino)-methyl]-2-methyl-pyridin-4-ylmethyl}-amino) hexanoic acid], for which the inhibition at 5 µM in assay [1] (setting [4]) was 91%; in assay [1] (setting [5]), 63%; in assay [2] (compound 5 μM), 96%; in assay [3] (compound 5 μM), 90%. Moreover, the figures for the Ki at Human Thrombin and on Human FXa were 0.848 µM and 6.2 µM, respectively.

With `Cc1ncc(CNc2ccc(-c3ccc(C(=N)N)cc3)cn2)c(CO)c1OCc1ccc(C(=N)N)cc1` [Compound 60], the inhibition at 30 µM in assay [1] (setting [4]) was 47%; in assay [1] (setting [5]) it was 26%; in assay [2] it was 87%; in assay [3], 89%. Further, the inhibition constant (Ki) on Human Thrombin is 11 µM; at Human FXa, 25 µM.
